From BindingDB's records for doi:10.1016/S0960-894X(02)00564-4 (Universita Degli Studi Di Firenze, 2002)

Biological target: T1, Collagenase ColG (Hathewaya histolytica, UniProt Q9X721)
T1 sequence (Q9X721 whole entry): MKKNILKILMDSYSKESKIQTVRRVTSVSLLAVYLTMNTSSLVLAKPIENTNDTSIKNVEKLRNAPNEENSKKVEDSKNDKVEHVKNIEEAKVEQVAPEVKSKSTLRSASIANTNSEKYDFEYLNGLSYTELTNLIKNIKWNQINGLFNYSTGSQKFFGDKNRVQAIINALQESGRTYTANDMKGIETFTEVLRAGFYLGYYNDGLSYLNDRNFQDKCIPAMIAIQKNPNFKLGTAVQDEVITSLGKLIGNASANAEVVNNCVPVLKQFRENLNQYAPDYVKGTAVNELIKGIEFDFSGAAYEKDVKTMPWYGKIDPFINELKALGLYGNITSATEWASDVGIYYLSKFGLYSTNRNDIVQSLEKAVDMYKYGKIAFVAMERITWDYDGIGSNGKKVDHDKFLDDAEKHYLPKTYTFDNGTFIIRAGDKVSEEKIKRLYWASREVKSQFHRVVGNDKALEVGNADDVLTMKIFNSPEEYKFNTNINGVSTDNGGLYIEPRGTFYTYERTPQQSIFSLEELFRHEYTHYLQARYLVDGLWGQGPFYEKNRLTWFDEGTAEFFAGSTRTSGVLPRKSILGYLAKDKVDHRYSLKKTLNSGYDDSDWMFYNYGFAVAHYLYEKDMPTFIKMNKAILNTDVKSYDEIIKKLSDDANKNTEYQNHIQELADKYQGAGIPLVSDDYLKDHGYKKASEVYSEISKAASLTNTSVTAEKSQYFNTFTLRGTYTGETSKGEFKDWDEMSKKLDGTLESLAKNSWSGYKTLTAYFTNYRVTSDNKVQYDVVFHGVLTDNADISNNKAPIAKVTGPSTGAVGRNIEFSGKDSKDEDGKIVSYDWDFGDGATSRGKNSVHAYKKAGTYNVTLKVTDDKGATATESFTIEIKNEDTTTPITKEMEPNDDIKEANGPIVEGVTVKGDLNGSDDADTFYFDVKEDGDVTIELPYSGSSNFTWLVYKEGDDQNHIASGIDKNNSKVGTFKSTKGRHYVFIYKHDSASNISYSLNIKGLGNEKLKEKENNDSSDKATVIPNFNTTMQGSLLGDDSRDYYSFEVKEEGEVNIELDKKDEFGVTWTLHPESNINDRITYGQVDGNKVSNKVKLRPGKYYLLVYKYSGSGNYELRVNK
Assay: MMP Enzyme Inhibition Assay
Procedure: Initial rates for the hydrolysis of the thioester substrate were used for assessing the catalytic activity and inhibition of the MMPs by the spectrophotometric method. The change of absorbance at 405 nm was monitored. The inhibition constant Ki was then determined by using Easson-Stedman plots and a linear regression program.

Row | SMILES | Ki [µM]
1 | CC(NC(=O)C(Cc1ccccc1)NS(=O)(=O)c1ccc2ccccc2c1)C(=O)Nc1nnc(S)s1 (stereo unspecified) [2-(naphthalene-2-sulfonamido)-3-phenyl-N-{1-[(5-sulfanyl-1,3,4-thiadiazol-2-yl)carbamoyl]ethyl}propanamide] | 40
2 | CC(NC(=O)C(Cc1ccccc1)NC(=O)NS(=O)(=O)c1ccc(Cl)cc1)C(=O)Nc1nnc(S)s1 (stereo unspecified) [2-({[(4-chlorobenzene)sulfonyl]carbamoyl}amino)-3-phenyl-N-{1-[(5-sulfanyl-1,3,4-thiadiazol-2-yl)carbamoyl]ethyl}propanamide] | 0.3
3 | CC(NC(=O)C(Cc1ccccc1)NC(=O)NS(=O)(=O)c1ccc(F)cc1)C(=O)Nc1nnc(S)s1 (stereo unspecified) [2-({[(4-fluorobenzene)sulfonyl]carbamoyl}amino)-3-phenyl-N-{1-[(5-sulfanyl-1,3,4-thiadiazol-2-yl)carbamoyl]ethyl}propanamide] | 0.2
4 | Cc1ccc(S(=O)(=O)NC(=O)NC(Cc2ccccc2)C(=O)NC(C)C(=O)Nc2nnc(S)s2)cc1 (stereo unspecified) [2-({[(4-methylbenzene)sulfonyl]carbamoyl}amino)-3-phenyl-N-{1-[(5-sulfanyl-1,3,4-thiadiazol-2-yl)carbamoyl]ethyl}propanamide] | 4
5 | CC(NC(=O)C(Cc1ccccc1)NS(=O)(=O)c1c(F)c(F)c(F)c(F)c1F)C(=O)Nc1nnc(S)s1 (stereo unspecified) [2-[(2,3,4,5,6-pentafluorobenzene)sulfonamido]-3-phenyl-N-{1-[(5-sulfanyl-1,3,4-thiadiazol-2-yl)carbamoyl]ethyl}propanamide] | 5
6 | CC(NC(=O)C(Cc1ccccc1)NS(=O)(=O)c1cc(Cl)ccc1Cl)C(=O)Nc1nnc(S)s1 (stereo unspecified) [2-[(2,5-dichlorobenzene)sulfonamido]-3-phenyl-N-{1-[(5-sulfanyl-1,3,4-thiadiazol-2-yl)carbamoyl]ethyl}propanamide] | 15
7 | CC(=O)Nc1ccc(S(=O)(=O)NC(Cc2ccccc2)C(=O)NC(C)C(=O)Nc2nnc(S)s2)cc1 (stereo unspecified) [2-[(4-acetamidobenzene)sulfonamido]-3-phenyl-N-{1-[(5-sulfanyl-1,3,4-thiadiazol-2-yl)carbamoyl]ethyl}propanamide] | 16
8 | CC(NC(=O)C(Cc1ccccc1)NS(=O)(=O)c1ccc(Br)cc1)C(=O)Nc1nnc(S)s1 (stereo unspecified) [2-[(4-bromobenzene)sulfonamido]-3-phenyl-N-{1-[(5-sulfanyl-1,3,4-thiadiazol-2-yl)carbamoyl]ethyl}propanamide] | 16
9 | CC(NC(=O)C(Cc1ccccc1)NS(=O)(=O)c1ccc(F)cc1)C(=O)Nc1nnc(S)s1 (stereo unspecified) [2-[(4-fluorobenzene)sulfonamido]-3-phenyl-N-{1-[(5-sulfanyl-1,3,4-thiadiazol-2-yl)carbamoyl]ethyl}propanamide] | 21
10 | CC(NC(=O)C(Cc1ccccc1)NS(=O)(=O)c1ccc(I)cc1)C(=O)Nc1nnc(S)s1 (stereo unspecified) [2-[(4-iodobenzene)sulfonamido]-3-phenyl-N-{1-[(5-sulfanyl-1,3,4-thiadiazol-2-yl)carbamoyl]ethyl}propanamide] | 14
11 | COc1ccc(S(=O)(=O)NC(Cc2ccccc2)C(=O)NC(C)C(=O)Nc2nnc(S)s2)cc1 (stereo unspecified) [2-[(4-methoxybenzene)sulfonamido]-3-phenyl-N-{1-[(5-sulfanyl-1,3,4-thiadiazol-2-yl)carbamoyl]ethyl}propanamide] | 14
12 | Cc1ccc(S(=O)(=O)NC(Cc2ccccc2)C(=O)NC(C)C(=O)Nc2nnc(S)s2)cc1 (stereo unspecified) [2-[(4-methylbenzene)sulfonamido]-3-phenyl-N-{1-[(5-sulfanyl-1,3,4-thiadiazol-2-yl)carbamoyl]ethyl}propanamide] | 15
13 | CC(NC(=O)C(Cc1ccccc1)NS(=O)(=O)c1ccc([N+](=O)[O-])cc1)C(=O)Nc1nnc(S)s1 (stereo unspecified) [2-[(4-nitrobenzene)sulfonamido]-3-phenyl-N-{1-[(5-sulfanyl-1,3,4-thiadiazol-2-yl)carbamoyl]ethyl}propanamide] | 13
14 | CC(NC(=O)C(Cc1ccccc1)NS(=O)(=O)CC12CCC(CC1=O)C2(C)C)C(=O)Nc1nnc(S)s1 (stereo unspecified) [2-[({7,7-dimethyl-2-oxobicyclo[2.2.1]heptan-1-yl}methane)sulfonamido]-3-phenyl-N-{1-[(5-sulfanyl-1,3,4-thiadiazol-2-yl)carbamoyl]ethyl}propanamide] | 25
15 | CC(NC(=O)C(Cc1ccccc1)NS(=O)(=O)c1cccc2c(N(C)C)cccc12)C(=O)Nc1nnc(S)s1 (stereo unspecified) [2-{[5-(dimethylamino)naphthalene-1-]sulfonamido}-3-phenyl-N-{1-[(5-sulfanyl-1,3,4-thiadiazol-2-yl)carbamoyl]ethyl}propanamide] | 43
16 | CC(NC(=O)C(Cc1ccccc1)NC(=O)NS(=O)(=O)c1ccccc1)C(=O)Nc1nnc(S)s1 (stereo unspecified) [2-{[(benzenesulfonyl)carbamoyl]amino}-3-phenyl-N-{1-[(5-sulfanyl-1,3,4-thiadiazol-2-yl)carbamoyl]ethyl}propanamide] | 3
17 | CC(NC(=O)C(Cc1ccccc1)NS(=O)(=O)Cc1ccccc1)C(=O)Nc1nnc(S)s1 (stereo unspecified) [3-phenyl-2-(phenylmethane)sulfonamido-N-{1-[(5-sulfanyl-1,3,4-thiadiazol-2-yl)carbamoyl]ethyl}propanamide] | 19
18 | CC(NC(=O)C(Cc1ccccc1)NS(=O)(=O)c1cccc2cccnc12)C(=O)Nc1nnc(S)s1 (stereo unspecified) [3-phenyl-2-(quinoline-8-sulfonamido)-N-{1-[(5-sulfanyl-1,3,4-thiadiazol-2-yl)carbamoyl]ethyl}propanamide] | 36
19 | CC(NC(=O)C(Cc1ccccc1)NS(=O)(=O)c1cccs1)C(=O)Nc1nnc(S)s1 (stereo unspecified) [3-phenyl-N-{1-[(5-sulfanyl-1,3,4-thiadiazol-2-yl)carbamoyl]ethyl}-2-(thiophene-2-sulfonamido)propanamide] | 9
20 | Cc1cc(C)c(S(=O)(=O)NC(Cc2ccccc2)C(=O)NC(C)C(=O)Nc2nnc(S)s2)c(C)c1 (stereo unspecified) [3-phenyl-N-{1-[(5-sulfanyl-1,3,4-thiadiazol-2-yl)carbamoyl]ethyl}-2-[(2,4,6-trimethylbenzene)sulfonamido]propanamide] | 17
21 | CC(NC(=O)C(Cc1ccccc1)NS(=O)(=O)c1cccc(C(F)(F)F)c1)C(=O)Nc1nnc(S)s1 (stereo unspecified) [3-phenyl-N-{1-[(5-sulfanyl-1,3,4-thiadiazol-2-yl)carbamoyl]ethyl}-2-{[3-(trifluoromethyl)benzene]sulfonamido}propanamide] | 9
